Laboratory results published in the supplement of paper PMC10307832.

How the values were obtained:
Experiment in all cases: relative viability (nuclei count vs DMSO), 5 days (fraction); higher = more cells survive
HCC-15 = system: HCC-15
Outline: (§1)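 Dosing by pin tool came one day after lung cancer cell lines were seeded in 1536-well plates, using either one drug or a fixed anchor-drug dose plus five library-drug doses (not always all listed) in √10 steps. After 5 days, nuclei were counted on 4× images. Relative viability is treated-well nuclei count divided by vehicle-well nuclei count, and values are medians of duplicate plates.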

NCI-H838 = system: NCI-H838
Outline: as §1

BEN = system: BEN
Outline: as §1

NCI-H2342 = system: NCI-H2342
Outline: as §1

NCI-H647 = system: NCI-H647
Outline: as §1

NCI-H460 = system: NCI-H460
Outline: as §1

NCI-H1355 = system: NCI-H1355
Outline: as §1

NCI-H23 = system: NCI-H23
Outline: as §1

LU99A = system: LU99A
Outline: as §1

LCLC-97TM1 = system: LCLC-97TM1
Outline: as §1

201T = system: 201T
Outline: as §1

NCI-H1395 = system: NCI-H1395
Outline: as §1

NCI-H2126 = system: NCI-H2126
Outline: as §1

NCI-H2405 = system: NCI-H2405
Outline: as §1

NCI-H322M = system: NCI-H322M
Outline: as §1

NCI-H2009 = system: NCI-H2009
Outline: as §1

NCI-H650 = system: NCI-H650
Outline: as §1

NCI-H661 = system: NCI-H661
Outline: as §1

EPLC-272H = system: EPLC-272H
Outline: as §1

NCI-H2085 = system: NCI-H2085
Outline: as §1

PC-14 = system: PC-14
Outline: as §1

NCI-H2228 = system: NCI-H2228
Outline: as §1

HCC-78 = system: HCC-78
Outline: as §1

CN1CCN(CCOc2cc(OC3CCOCC3)c3c(Nc4c(Cl)ccc5c4OCO5)ncnc3c2)CC1 [Saracatinib] + CCNC(=O)c1noc(-c2cc(C(C)C)c(O)cc2O)c1-c1ccc(CN2CCOCC2)cc1 [Luminespib] (partner 0.01 µM)
relative viability (HCC-15; first compound 0.02 µM): 0.343
relative viability (HCC-15; first compound 0.2 µM): 0.32
relative viability (HCC-15; first compound 0.6325 µM): 0.331
relative viability (HCC-15; first compound 2 µM): 0.176
relative viability (NCI-H838; first compound 0.02 µM): 0.264
relative viability (NCI-H838; first compound 0.2 µM): 0.411
relative viability (NCI-H838; first compound 0.6325 µM): 0.307
relative viability (NCI-H838; first compound 2 µM): 0.271
relative viability (BEN; first compound 0.02 µM): 0.421
relative viability (BEN; first compound 0.6325 µM): 0.418
relative viability (BEN; first compound 2 µM): 0.401
relative viability (NCI-H2342; first compound 0.02 µM): 0.659
relative viability (NCI-H2342; first compound 0.2 µM): 0.698
relative viability (NCI-H2342; first compound 0.6325 µM): 0.758
relative viability (NCI-H2342; first compound 2 µM): 0.519
relative viability (NCI-H647; first compound 0.02 µM): 0.175
relative viability (NCI-H647; first compound 0.2 µM): 0.171
relative viability (NCI-H647; first compound 0.6325 µM): 0.303
relative viability (NCI-H647; first compound 2 µM): 0.146
relative viability (NCI-H460; first compound 0.02 µM): 0.0378
relative viability (NCI-H460; first compound 0.2 µM): 0.0238
relative viability (NCI-H460; first compound 0.6325 µM): 0.0253
relative viability (NCI-H460; first compound 2 µM): 0.0287
relative viability (NCI-H1355; first compound 0.02 µM): 0.732
relative viability (NCI-H1355; first compound 0.2 µM): 0.544
relative viability (NCI-H1355; first compound 0.6325 µM): 0.697
relative viability (NCI-H1355; first compound 2 µM): 0.634
relative viability (NCI-H23; first compound 0.02 µM): 0.247
relative viability (NCI-H23; first compound 0.2 µM): 0.193
relative viability (NCI-H23; first compound 0.6325 µM): 0.196
relative viability (NCI-H23; first compound 2 µM): 0.219
relative viability (LU99A; first compound 0.02 µM): 0.214
relative viability (LU99A; first compound 0.2 µM): 0.203
relative viability (LU99A; first compound 0.6325 µM): 0.26
relative viability (LU99A; first compound 2 µM): 0.232
relative viability (LCLC-97TM1; first compound 0.02 µM): 0.8
relative viability (LCLC-97TM1; first compound 0.2 µM): 0.47
relative viability (LCLC-97TM1; first compound 0.6325 µM): 0.725
relative viability (LCLC-97TM1; first compound 2 µM): 0.444
relative viability (201T; first compound 0.02 µM): 1.05
relative viability (201T; first compound 0.2 µM): 0.956
relative viability (201T; first compound 0.6325 µM): 0.965
relative viability (201T; first compound 2 µM): 0.832
relative viability (NCI-H1395; first compound 0.02 µM): 0.621
relative viability (NCI-H1395; first compound 0.2 µM): 0.634
relative viability (NCI-H1395; first compound 0.6325 µM): 0.79
relative viability (NCI-H1395; first compound 2 µM): 0.62
relative viability (NCI-H2126; first compound 0.02 µM): 0.878
relative viability (NCI-H2126; first compound 0.2 µM): 0.895
relative viability (NCI-H2126; first compound 0.6325 µM): 0.852
relative viability (NCI-H2126; first compound 2 µM): 0.655
relative viability (NCI-H2405; first compound 0.02 µM): 0.588
relative viability (NCI-H2405; first compound 0.2 µM): 0.525
relative viability (NCI-H2405; first compound 0.6325 µM): 0.519
relative viability (NCI-H2405; first compound 2 µM): 0.271
relative viability (NCI-H322M; first compound 0.02 µM): 0.867
relative viability (NCI-H322M; first compound 0.2 µM): 0.711
relative viability (NCI-H322M; first compound 0.6325 µM): 0.682
relative viability (NCI-H322M; first compound 2 µM): 0.378
relative viability (NCI-H2009; first compound 0.02 µM): 0.997
relative viability (NCI-H2009; first compound 0.2 µM): 1.04
relative viability (NCI-H2009; first compound 0.6325 µM): 0.951
relative viability (NCI-H2009; first compound 2 µM): 0.913
relative viability (NCI-H650; first compound 0.02 µM): 0.685
relative viability (NCI-H650; first compound 0.2 µM): 0.613
relative viability (NCI-H650; first compound 0.6325 µM): 0.87
relative viability (NCI-H650; first compound 2 µM): 0.68
relative viability (NCI-H661; first compound 0.02 µM): 0.948
relative viability (NCI-H661; first compound 0.2 µM): 0.921
relative viability (NCI-H661; first compound 0.6325 µM): 0.943
relative viability (NCI-H661; first compound 2 µM): 0.771
relative viability (EPLC-272H; first compound 0.02 µM): 0.24
relative viability (EPLC-272H; first compound 0.2 µM): 0.382
relative viability (EPLC-272H; first compound 0.6325 µM): 0.123
relative viability (EPLC-272H; first compound 2 µM): 0.197
relative viability (NCI-H2085; first compound 0.02 µM): 0.411
relative viability (NCI-H2085; first compound 0.2 µM): 0.347
relative viability (NCI-H2085; first compound 0.6325 µM): 0.481
relative viability (NCI-H2085; first compound 2 µM): 0.429
relative viability (PC-14; first compound 0.02 µM): 0.175
relative viability (PC-14; first compound 0.2 µM): 0.183
relative viability (PC-14; first compound 0.6325 µM): 0.173
relative viability (PC-14; first compound 2 µM): 0.227
relative viability (NCI-H2228; first compound 0.02 µM): 0.157
relative viability (NCI-H2228; first compound 0.2 µM): 0.167
relative viability (NCI-H2228; first compound 0.6325 µM): 0.0897
relative viability (NCI-H2228; first compound 2 µM): 0.116

CN1CCN(CCOc2cc(OC3CCOCC3)c3c(Nc4c(Cl)ccc5c4OCO5)ncnc3c2)CC1 [Saracatinib] + NC(=O)Nc1cc(-c2cccc(F)c2)sc1C(=O)N[C@H]1CCCNC1 [AZD7762] (partner 0.2 µM)
relative viability (HCC-15; first compound 0.02 µM): 1.29
relative viability (HCC-15; first compound 0.2 µM): 0.874
relative viability (HCC-15; first compound 0.6325 µM): 1.14
relative viability (HCC-15; first compound 2 µM): 1.21
relative viability (NCI-H838; first compound 0.02 µM): 0.957
relative viability (NCI-H838; first compound 0.2 µM): 0.886
relative viability (NCI-H838; first compound 0.6325 µM): 0.989
relative viability (NCI-H838; first compound 2 µM): 0.852
relative viability (BEN; first compound 0.02 µM): 0.906
relative viability (BEN; first compound 0.2 µM): 0.511
relative viability (BEN; first compound 0.6325 µM): 0.847
relative viability (BEN; first compound 2 µM): 0.713
relative viability (NCI-H2342; first compound 0.02 µM): 0.721
relative viability (NCI-H2342; first compound 0.2 µM): 0.471
relative viability (NCI-H2342; first compound 0.6325 µM): 0.562
relative viability (NCI-H2342; first compound 2 µM): 0.515
relative viability (NCI-H647; first compound 0.02 µM): 0.564
relative viability (NCI-H647; first compound 0.2 µM): 0.509
relative viability (NCI-H647; first compound 0.6325 µM): 0.507
relative viability (NCI-H647; first compound 2 µM): 0.354
relative viability (NCI-H460; first compound 0.02 µM): 0.732
relative viability (NCI-H460; first compound 0.2 µM): 0.482
relative viability (NCI-H460; first compound 0.6325 µM): 0.628
relative viability (NCI-H460; first compound 2 µM): 0.596
relative viability (NCI-H1355; first compound 0.02 µM): 0.769
relative viability (NCI-H1355; first compound 0.2 µM): 0.564
relative viability (NCI-H1355; first compound 0.6325 µM): 0.719
relative viability (NCI-H1355; first compound 2 µM): 0.715
relative viability (NCI-H23; first compound 0.02 µM): 0.243
relative viability (NCI-H23; first compound 0.6325 µM): 0.287
relative viability (NCI-H23; first compound 2 µM): 0.27
relative viability (LU99A; first compound 0.02 µM): 0.374
relative viability (LU99A; first compound 0.2 µM): 0.279
relative viability (LU99A; first compound 0.6325 µM): 0.31
relative viability (LU99A; first compound 2 µM): 0.325
relative viability (LCLC-97TM1; first compound 0.02 µM): 0.294
relative viability (LCLC-97TM1; first compound 0.6325 µM): 0.398
relative viability (LCLC-97TM1; first compound 2 µM): 0.265
relative viability (201T; first compound 0.02 µM): 0.554
relative viability (201T; first compound 0.2 µM): 0.446
relative viability (201T; first compound 0.6325 µM): 0.623
relative viability (201T; first compound 2 µM): 0.625
relative viability (NCI-H1395; first compound 0.02 µM): 0.404
relative viability (NCI-H1395; first compound 0.2 µM): 0.397
relative viability (NCI-H1395; first compound 0.6325 µM): 0.388
relative viability (NCI-H1395; first compound 2 µM): 0.382
relative viability (NCI-H2126; first compound 0.02 µM): 1
relative viability (NCI-H2126; first compound 0.2 µM): 0.883
relative viability (NCI-H2126; first compound 0.6325 µM): 1.01
relative viability (NCI-H2126; first compound 2 µM): 0.993
relative viability (NCI-H2405; first compound 0.02 µM): 0.702
relative viability (NCI-H2405; first compound 0.2 µM): 0.594
relative viability (NCI-H2405; first compound 0.6325 µM): 0.554
relative viability (NCI-H2405; first compound 2 µM): 0.388
relative viability (NCI-H322M; first compound 0.02 µM): 0.593
relative viability (NCI-H322M; first compound 0.2 µM): 0.498
relative viability (NCI-H322M; first compound 0.6325 µM): 0.552
relative viability (NCI-H322M; first compound 2 µM): 0.353
relative viability (NCI-H650; first compound 0.02 µM): 0.984
relative viability (NCI-H650; first compound 0.2 µM): 1.04
relative viability (NCI-H650; first compound 0.6325 µM): 0.98
relative viability (NCI-H650; first compound 2 µM): 0.997
relative viability (EPLC-272H; first compound 0.02 µM): 0.203
relative viability (EPLC-272H; first compound 0.2 µM): 0.229
relative viability (EPLC-272H; first compound 0.6325 µM): 0.18
relative viability (EPLC-272H; first compound 2 µM): 0.245
relative viability (HCC-78; first compound 0.02 µM): 0.583
relative viability (HCC-78; first compound 0.6325 µM): 0.774
relative viability (HCC-78; first compound 2 µM): 0.421
relative viability (NCI-H2085; first compound 0.02 µM): 1.06
relative viability (NCI-H2085; first compound 0.2 µM): 0.864
relative viability (NCI-H2085; first compound 0.6325 µM): 0.903
relative viability (NCI-H2085; first compound 2 µM): 0.871
relative viability (PC-14; first compound 0.02 µM): 0.381
relative viability (PC-14; first compound 0.2 µM): 0.286
relative viability (PC-14; first compound 0.6325 µM): 0.246
relative viability (PC-14; first compound 2 µM): 0.203
